Molecules are shown by their SMILES. Inconclusive results are not listed. Calls of active or inactive are those of the source. The rule behind the calls is not given here.

In the data set the test system is S. typhimurium/E. coli reverse mutation, colony counts. Put plainly: Bacterial reverse mutation test (aka Ames test) summary data. Put shortly:
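S. typhimurium his⁻ strains (TA97–TA1538) and E. coli WP2 uvrA pKM101 trp⁻, dosed over a range with or without rat, hamster or mouse liver S9. Preincubated 20 min at 37° C (or plate incorporation), plated in agar, incubated usually two days. Revertant colonies counted against negative controls.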
Background: The Ames test detects mutagens through reverse mutation in bacteria.
As to `O=C1NC2NC(=O)NC2N1` (stereo not given), the outcome is “inactive; negative”. The value for `Nc1nc(N)nc(N)n1` was “inactive; negative”; that for `c1ccc(N=NNc2ccccc2)cc1` was “active; positive”. For the compound `C=CC(=O)OCCCC`, the outcome was “inactive; negative”. In the case of `CC1CC(=O)O1` (stereo not given), the outcome is “active; positive”. As for `OCC(Cl)Cl`, the outcome is “active; weakly positive”.

Take `Oc1ccc(C(c2ccc(O)cc2)(C(F)(F)F)C(F)(F)F)cc1`: the outcome was “inactive; negative”. With `C1COCCO1`, the outcome was “inactive; negative”. Under `Cc1ccc(N(C)C)cc1` stands “inactive; negative”; under `COc1c2ccoc2cc2oc(=O)ccc12`, “active; positive”.

Regarding `[O]=[V]([OH])([OH])[OH]`, the outcome is “inactive; negative”. The value for `CCCCC(CC)COCC1CO1` (stereo not given) was “active; positive”. For the compound `CBr`, the outcome is “active; positive”.

Turning to `Cc1ccc2cc3c(ccc4ccccc43)c3c2c1CC3`, the outcome was “active; positive”. The value for `CCCC[n+]1ccccc1` was “inactive; negative”; that for `NCCS(=O)(=O)O` was “inactive; negative”; that for `CC(C)OC(=O)Cc1ccccc1` was “inactive; negative”. The value for `CN1CCCC1=O` was “inactive; negative”.

In the case of `CCSCCC(N)C(=O)O` (stereo not given), the outcome was “inactive; negative”. Under `CCCCOC(=O)c1ccc(O)cc1` stands “inactive; negative”; under `Clc1cccc2ccccc12`, “active; weakly positive”; under `[Na+]`, “inactive; negative”. The value for `CCCC(=O)O` was “inactive; negative”; that for `Nc1ccc(Cl)cc1[N+](=O)[O-]` was “active; positive”; that for `Brc1c(Br)c(Br)c(Oc2c(Br)c(Br)c(Br)c(Br)c2Br)c(Br)c1Br` was “inactive; negative”. On to `C=C(C)C(=O)NCCCN(C)C`, for which the outcome is “inactive; negative”.

`ClC(Cl)(Cl)c1ccccc1`: the outcome was “active; positive”. Consider `CC(=O)OCc1ccccc1`, for which the outcome was “inactive; negative”. Take `Cc1ccc(N=Nc2c(O)ccc3ccccc23)c([N+](=O)[O-])c1`: the outcome is “active; positive”. The value for `Oc1cccc2cc3cccc(O)c3c(O)c12` was “inactive; negative”. Under `NCCCN` stands “inactive; negative”; under `COc1ccccc1[N+](=O)[O-]`, “active; positive”; under `CC12CCC(C1)C(C)(C)C2=O` (stereo not given), “inactive; negative”.

For `O=P(OC(CCl)CCl)(OC(CCl)CCl)OC(CCl)CCl`, the outcome is “active; positive”. In the case of `NCCO`, the outcome is “inactive; negative”.

On to `C[C@]12CCC(=O)C=C1CC[C@@H]1[C@@H]2CC[C@]2(C)C(=O)CC[C@@H]12`, for which the outcome is “inactive; negative”. Take `c1ccc2sc(SSc3nc4ccccc4s3)nc2c1`: the outcome is “active; positive”. Under `O=[N+]([O-])c1ccc(F)c([N+](=O)[O-])c1` stands “active; positive”; under `CCOP(=S)(OCC)SCSC(C)(C)C`, “inactive; negative”. The value for `COC(=O)[C@H]1[C@H]2C[C@@H]3c4[nH]c5cc(OC)ccc5c4CCN3C[C@H]2C[C@@H](OC(=O)c2cc(OC)c(OC)c(OC)c2)[C@@H]1OC` was “inactive; negative”; that for `CN=c1ccc2nc3ccc(N)cc3sc-2c1` was “active; positive”. With `C1CN(CCOCCN2CCOCC2)CCO1`, the outcome was “inactive; negative”. Regarding `Cc1ccccc1C=O`, the outcome was “inactive; negative”. The value for `COC(=O)C1=C(C)NC(C)=C(C(=O)OC)C1c1ccccc1[N+](=O)[O-]` was “inactive; negative”.

For the compound `CC(Cl)(Cl)Cl`, the outcome was “inactive; negative”. Take `Clc1cccc(Cl)c1`: the outcome was “inactive; negative”. Regarding `Nc1ccc(O)c(C(=O)O)c1`, the outcome was “inactive; negative”.

In the case of `CCN(CC)C(=O)C(Cl)=C(C)OP(=O)(OC)OC`, the outcome is “active; positive”. For the compound `O=[N+]([O-])c1c2ccccc2cc2ccccc12`, the outcome is “active; positive”. Under `NNC(N)=O` stands “inactive; negative”; under `CC(C)CN`, “inactive; negative”. Under `Oc1cccc(O)c1O` stands “active; positive”; under `Nc1ncn[nH]1`, “inactive; negative”. For the compound `OCCC(F)(F)C(F)(F)C(F)(F)C(F)(F)C(F)(F)C(F)(F)C(F)(F)C(F)(F)C(F)(F)C(F)(F)F`, the outcome was “inactive; negative”. Under `Nc1ccccc1C(=O)OCCc1ccccc1` stands “inactive; negative”. As for `O=C(O)C(Cl)(Br)Br`, the outcome is “active; positive”. The value for `Nc1ccc(-c2ccc(N)cc2)cc1` was “active; positive”; that for `CCc1ccc(C(c2ccc(CC)cc2)C(Cl)Cl)cc1` was “active; positive”.

`COCCOC(C)=O`: the outcome is “active; weakly positive”. The value for `Nc1c(Br)cc([N+](=O)[O-])cc1[N+](=O)[O-]` was “active; positive”; that for `Cc1cccc(C)c1N` was “active; weakly positive”.

In the case of `CCNCC`, the outcome was “inactive; negative”. With `FC(F)(F)C(F)(F)I`, the outcome was “active; positive”. The value for `Nc1ccc(Cl)c(N)c1` was “active; positive”. Regarding `S=C([S-])NCCNC(=S)[S-].[Zn+2]`, the outcome was “inactive; negative”. The value for `CC(C)(C)OOC(C)(C)C` was “inactive; negative”; that for `Nc1ncn([C@@H]2O[C@H](CO)[C@@H](O)[C@H]2O)c(=O)n1` was “active; positive”; that for `C[C@H]1CCC[C@H](O)CCCCCc2cc(O)cc(O)c2C(=O)O1` was “inactive; negative”. The value for `Nc1ccccc1C(=O)OC1CCCCC1` was “inactive; negative”; that for `[Cl-].[Cl-].[Hg+2]` was “inactive; negative”. The value for `CCCCCC[C@@H](O)C/C=C\CCCCCCCC(=O)O` was “inactive; negative”. `CCN(CC)CCCC(C)Nc1c2ccc(Cl)cc2nc2ccc(OC)cc12` (stereo not given): the outcome is “active; positive”. Under `O=C(NO)c1ccccc1` stands “active; positive”; under `CCCBr`, “inactive; negative”. The value for `O=[N+]([O-])c1ccc(Cl)c(Cl)c1Cl` was “active; positive”; that for `CC(C)CCC[C@@H](C)[C@H]1CC[C@H]2[C@@H]3CC=C4C[C@@H](OC(=O)Cc5ccc(N(CCCl)CCCl)cc5)CC[C@]4(C)[C@H]3CC[C@]12C` was “inactive; negative”. Under `CC(CC(=O)O)C(=O)O` (stereo not given) stands “inactive; negative”; under `O=C(O)c1cc(N=Nc2ccc([N+](=O)[O-])cc2)ccc1O`, “active; positive”. Turning to `NCCNc1cccc2ccccc12`, the outcome was “active; positive”.

Consider `O=C(O)C1C(C(=O)O)C2(Cl)C(Cl)=C(Cl)C1(Cl)C2(Cl)Cl` (stereo not given), for which the outcome was “inactive; negative”.

`O=[N+]([O-])c1cc([As](=O)(O)O)ccc1O`: the outcome is “inactive; negative”. In the case of `COP(=O)(OC)OC=C(Cl)Cl`, the outcome was “active; positive”.

On to `Nc1cccc2c(=O)[nH][nH]c(=O)c12`, for which the outcome is “inactive; negative”. Regarding `Nc1cccc(Cl)c1`, the outcome is “inactive; negative”.

On to `O=C1C(c2[nH]c3ccc(S(=O)(=O)O)cc3c2O)=Nc2ccc(S(=O)(=O)O)cc21`, for which the outcome is “active; positive”. Under `CC(O)C#N` (stereo not given) stands “active; weakly positive”; under `C=CC(=O)OCCCCCCOC(=O)C=C`, “inactive; negative”. The value for `CN(C)C(=O)Cl` was “active; positive”; that for `CN1C(CSCC(F)(F)F)Nc2cc(Cl)c(S(N)(=O)=O)cc2S1(=O)=O` (stereo not given) was “inactive; negative”. In the case of `O=C(O)c1ccc([N+](=O)[O-])cc1`, the outcome was “active; positive”.

In the case of `O=C(O)c1ccc2c(c1)C(=O)OC2=O`, the outcome was “inactive; negative”. For `O=C1CCC(=O)O1`, the outcome is “inactive; negative”. As to `ClCCl`, the outcome was “active; positive”. As to `O=C(O)CNC(=O)c1ccc([N+](=O)[O-])cc1`, the outcome was “active; positive”.

With `O=C=S`, the outcome was “active; weakly positive”.

For the compound `Nc1ccc(Cl)cc1Cl`, the outcome was “active; weakly positive”.

On to `CC(O)CBr` (stereo not given), for which the outcome is “active; positive”.

As to `Cc1ccc([N+](=O)[O-])cc1C(=O)O`, the outcome was “active; positive”. The value for `CC(=O)Nc1ccccc1N` was “active; positive”. Turning to `CN(C)C(=S)SSC(=S)N(C)C`, the outcome was “active; positive”.

With `Nc1ccccc1O`, the outcome was “active; positive”. Take `O=c1[nH]c(=O)[nH]c(=O)[nH]1`: the outcome is “inactive; negative”. As to `OCC1CO1` (stereo not given), the outcome is “active; positive”. For `Cc1cc(N=Nc2c(O)ccc3ccccc23)c(S(=O)(=O)O)cc1Cl`, the outcome was “active; weakly positive”.

`CCCCC(CC)COC(=O)c1cccc(C(=O)OCC(CC)CCCC)c1` (stereo not given): the outcome is “inactive; negative”. For the compound `c1ccc2c(c1)-c1cccc3c1c-2cc1ccccc13`, the outcome was “active; positive”. The value for `CC(CCl)OP(=O)(OC(C)CCl)OC(C)CCl` (stereo not given) was “inactive; negative”; that for `Nc1ccc(N=Nc2cccc(N=Nc3ccc(N)cc3N)c2)c(N)c1` was “active; positive”. In the case of `OCCCCl`, the outcome was “active; positive”. Under `Nc1ccc2cc(S(=O)(=O)O)c(N=Nc3ccc(-c4ccc(N=Nc5c(S(=O)(=O)O)cc6cc(S(=O)(=O)O)cc(N)c6c5O)cc4)cc3)c(O)c2c1` stands “active; positive”.
